Measurements from US20230391776A1, “AMIDE OXAZOLE COMPOUND” (MEDSHINE DISCOVERY INC., priority 2020, published 2023).
Where “and” joins values, the source holds several entries; their conditions need not be identical. Identical values can stand only once.

Experiments:
[1] = test system: TNF-α secretion induced by LPS; experiment: TNF-α secretion model induced by LPS in SD rats; type: in vivo; details: 25 mpk oral gavage 0.5 h before 1 mg/kg LPS i.p., plasma 2 hours after modeling, p<0.01
Protocol: a) The pharmacokinetic effect of compound WX009 on TNF-α secretion model induced by LPS in SD rats.
Female SD rats were randomly divided into four groups according to the animal weight, namely Sham group, Model group and Dexamethasone (dosage: 0.5 mpk, DEX-0.5 mpk) group and tested drug WX009 (dosage: 25 mpk, WX009-25 mpk) group, with 6-9 animals in each group. The model was established by a single intraperitoneal injection of 1 mg/kg LPS. Dexamethasone and tested drug were given orally by gavage 0.5 h before modeling. After modeling for 2 hours, the animals were weighed, and all the experimental animals were anesthetized by intraperitoneal injection of pentobarbital sodium. An anticoagulant whole blood was collected through sublingual vein, anticoagulant: EDTA-K2, the plasma was separated, and the plasma volume was about 200 μL, which was used to detect the content of inflammatory factor, TNF-α.

[2] = test system: human diffuse large B lymphoma TMD8 cell subcutaneous xenograft; experiment: TMD8 subcutaneous xenograft tumor model (WX009 study); type: in vivo, SCID mouse; details: 18th day after administration
Excerpt: The formula for calculating the tumor inhibition rate TGI (%)=[1−(average tumor volume at the end of administration in a treatment group-average tumor volume at the beginning of administration in the treatment group))/(average tumor volume at the end of treatment in solvent control group-average tumor volume at the beginning of treatment in solvent control group)]×100%.

[3] = test system: human diffuse large B lymphoma TMD8 cell subcutaneous xenograft; experiment: TMD8 subcutaneous xenograft tumor model (WX017 and WX027 study); details: 11th day after administration
Protocol: a) TMD8 cells were cultured in RPMI-1640 medium containing 10% FBS and maintained in a 37° C. saturated humidity incubator with 5% CO2. TMD8 cells in logarithmic period were collected, resuspended in RPMI-1640 basal medium, and Matrigel was added at 1:1, and the cell concentration was adjusted to 4×10^7/mL. Under aseptic conditions, 0.1 mL of cell suspension was inoculated under the skin of the right back of SCID mice, and the inoculation concentration was 4×10^6/0.1 mL/mouse.
When the tumor grew to a certain size, the animals with too large, too small or irregular tumor shape were excluded, and the animals with tumor volume of 108.76-188.11 mm^3 were selected. According to the tumor volume, the animals were divided into 10 groups by random block method, with 6 mice in each group, and the average tumor volume was about 152.11 mm^3. The health status and death of animals were monitored every day, and routine examinations included observing the effects of tumor growth and drug treatment on daily behaviors of animals, such as behavioral activities, food intake and water intake, weight change (weight was measured twice a week), tumor size (tumor volume was measured twice a week), appearance signs or other abnormal conditions.
The formula for calculating tumor volume (TV) was: 1/2×a×b^2, where a and b were the measured length and width of the tumor respectively. The formula for calculating the tumor inhibition rate TGI (%)=[1−(average tumor volume at the end of administration in a treatment group-average tumor volume at the beginning of administration in the treatment group))/(average tumor volume at the end of treatment in solvent control group-average tumor volume at the beginning of treatment in solvent control group)]×100%.
In this study, the experimental data were all expressed by Mean±SEM. Statistical analysis was based on the data of RTV at the end of the experiment and analyzed by IBM SPSS Statistics software. T test was used to analyze the comparison between two groups, and one-way ANOVA was used to analyze the comparison between three or more groups. If the variance was even (there was no significant difference in F value), Tukey's method was used to analyze it, and if the variance was uneven (there was significant difference in F value), Games-Howell method was used to test it. p<0.05 was deemed to a significant difference.

| SMILES | TNF-α content in animal plasma compared with the Model group [1] | TGI ([2]; 5 mg/kg BID PO) | TGI ([2]; 10 mg/kg BID PO) | TGI ([2]; 20 mg/kg BID PO) | TGI ([3]; 3 mg/kg BID PO) | TGI ([3]; 10 mg/kg BID PO) | TGI ([3]; 20 mg/kg BID PO) |
| --- | --- | --- | --- | --- | --- | --- | --- |
| Cc1cc(-c2nc(C(=O)Nc3cn4cc(C(C)(C)O)nc4cc3-c3ccccc3)co2)ccn1 [WX009] | significantly reduce | 86% and 86.28% | 85.10% | 96.55% | – | – | – |
| CC(C)(O)c1cn2cc(NC(=O)c3coc(-c4ccnc(N)c4F)n3)c(-c3ccccc3)cc2n1 [WX027] | – | – | – | – | 78% | 90% | 104% |
| CC(C)(O)c1cn2cc(NC(=O)c3coc(-c4ccnc(N)c4)n3)c(-c3ccccc3)cc2n1 [WX017] | – | – | – | – | 86% | 100% | 114% |
